Assay results taken from patent US11576987B2, “Compositions and methods of treating melanoma” (UNIVERSITY OF IOWA RESEARCH FOUNDATION, priority 2016, dated 2023).
Where a name gives a salt, the structure may show the parent alone.

Experiments:
[1] = test system: MCR1 expression; assay: Pharmacological enhancement of MCR1 expression in human melanoma cells by drug incubation; format: cell-based; conditions: human melanoma cells, incubation with drug
Description: Melanoma if detected early can be cured by surgery, but metastatic melanoma is lethal. New therapies (e.g., immunotherapy; BRAF inhibition, BRAFi) and combinations extend life, but low response rates, acquired drug resistance, and serious side effects are major challenges to improving outcomes for disseminated disease (5 y survival 17%). Peptide-based radionuclide therapy targeted to the melanocortin-receptor type 1 (MCR1-RT) has long been considered a promising alternative; and MCR1-RT has achieved complete responses in mouse models (B16). However, MCR1 expression is heterogeneous/low in human melanoma, and as a result, no previous MCR1-RT study has employed successfully human melanoma cell xenografts. […] This introduces innovative Pb-specific chelator combined with a “click-cyclized” peptide (PSC-C-MCR1) to improve tumor:kidney ratio of radionuclide uptake 7-fold. An effective therapy for metastatic melanoma is developed that combines MCR1-RT with pharmacological agents (PBA; BRAFi/MEKi; HDACi) that enhance MCR1 expression.
Melanoma is the fastest growing cancer incidence in the United States. Surgery combined with radiation can be curative at early stages. However, metastatic melanoma is almost uniformly fatal (5-yr survival 17%). Recent breakthrough targeted MAPKi therapies (e.g., BRAFi) and immunotherapies (e.g., PD-1 inhibitors) have improved outcomes, but low response rates, acquired drug resistance, and adverse side effects limit quality of life for metastatic melanoma patients. For example, approval of immune-checkpoint inhibitor ipilimumab was based on an improvement in overall survival of only 3.7 months (overall response <15%). Combination immunotherapies have improved response (up to 61%), but grade 3/4 adverse events (up to 55%) often lead to therapy discontinuation (up to 36%). For targeted therapies, BRAF inhibitor vemurafenib was approved based on overall survival at 6 months of 84% vs 64% in the control arm (dacarbazine). Combining BRAFi with MEK inhibitors (MEKi) has led to modest improvements, yet recurrence is virtually inevitable. The mechanisms of acquired drug resistance are complex, and include altered/alternative oncogenic pathways; tumor heterogeneity; and enhanced DNA repair. Melanocortin-receptor type 1 targeted radionuclide therapy (MCR1-RT) has long been considered a promising alternative treatment for melanoma; and MCR1-targeted α-particle therapy (^212Pb) has achieved complete responses in mice bearing mouse (B16) tumors that highly express MCR1. However, these studies have been confined primarily to mouse melanoma (B16) cells because MCR1 expression is heterogeneous/low in human melanoma.
Combination therapies for metastatic melanoma are emerging as common practice (e.g., BRAFi plus MEK; and combination immunotherapies), but melanoma almost invariably develops resistance. MCR1-RT has long been considered a promising alternative, but previous therapy studies have been limited to the use of B16 mouse melanoma cells that highly express the MCR1 protein, because native MCR1 expression in human melanoma is heterogeneous/low.

[2] = test system: MC1R expression; assay: Real-time PCR analysis of MC1R expression in melanoma cells; format: cell-based, human; conditions: substantiated by flow cytometry and radiopeptide binding
Description: FIG. 10. Real-time PCR analysis of MC1R expression in A2058 and MEWO melanoma cells. A2058 cells were exposed to BRAFi GSK2118436, MEKi GSK1120212 and HDACi PBA for 24 h. Similarly, MEWO cells were treated with PBA and SAHA. Total RNA was isolated and reverse transcripted to cDNA. Real-time PCR was performed using 50 ng of each cDNA sample with labeled primer VIC-MC1R and FAM-NADPH. mRNA fold changes were calculated by ΔΔCt method and expressed as (n=3; Mean±SEM).
qPCR measurements are included to measure the change in MCR1 mRNA with changes in the concentration and incubation time for each drug and combinations (FIG. 10). These experiments are carried out as in FIG. 10 according to manufacturers' protocols, cells are seeded into 6-well plates until ˜80% confluent. After drug treatments, total RNA is isolated (Qiagen RNeasy Mini Kit). 1 μg of total RNA from each cell sample is used for reverse transcription using a high capacity reverse transcription kit (Applied Biosystem). cDNA samples are kept at −80° C. until use. Upon use, cDNA templates are employed in the qRT-PCR using a Taqman Gene Expression Assay for human MC1R (Assay ID: Hs00267167_s1). Human 18S (Assay ID: Hs99999901_s1) and human GAPDH (Assay ID: Hs03929097_g1) are used as housekeeping gene controls. […] Reactions are carried out in Applied Biosystem 7900HT. mRNA level is calculated by comparative ΔΔCt method.

[3] = PBA co-administration: kidney and tumor uptake of [203Pb]DOTA-MCR1; format: in vivo, mice; conditions: PBA 120 mg/kg co-administered i.v. or i.p., 2 h p.i.
Description: FIGS. 14A-14B. […] Results are ID %/g tissue±SD; **P<0.01; ****P<0.0001. (B Right) Pre-administered of PBA (i.p. 60 mg/kg) and BRAFi (vemurafenib; p.o. 5 mg/kg) 3 h prior to tail vein injection of 13 MBq [^203Pb]DOTA-MCR1 in human (A2058) melanoma-bearing athymic nu/nu mice (SPECT image 1 h p.i.); (B Left) An identical animal was administered an identical dose of [^203Pb]DOTA-MCR1 without PBA/BRAFi (saline). Images were identically processed and analyzed using Inveon Workplace software (identical contrast, intensity, etc.).
PBA relieves ER-stress through nonspecific binding to misfolded proteins in the ER. Thus, it was hypothesized that co-injection could inhibit peptide uptake in kidneys in the same fashion as amino acid co-infusions used clinically. This is reasonable because the megalin-cubulin system for reuptake and recirculation of nutrients in the proximal and distal tubules involves nonspecific binding and endocytosis of proteins, amino acids, and nutrients. results support the hypothesis that co-injection of PBA can serve to reduce kidney accumulation of radiopeptides in the kidneys (FIGS. 14A-B).

[4] = cited from earlier work

O=C(O)CCCc1ccccc1 [PBA, 4-phenylbutyric acid, sodium salt]
enhancement of MCR1 expression [1]: up to 8 fold
MCR1 expression by RT-PCR [2]: Enhanced expression of MCR1
kidney uptake of [203Pb]DOTA-MCR1 [3]: significantly blocked kidney uptake
tumor accumulation of [203Pb]DOTA-MCR1 [3]: did not affect tumor accumulation
solubility in acetone and diethyl ether [4]: practically insoluble
solubility in methanol [4]: freely soluble
solubility in water [4]: soluble in water
